± gives the standard deviation of the averaged measurements.
Columns and labels:
FLUOROURACIL = compound: O=c1[nH]cc(F)c(=O)[nH]1 [FLUOROURACIL]; experiment: surviving fraction relative to DMSO-only wells; higher = less growth inhibition; conditions: exposure time: 5 days
In short: (§1)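 Viability values are CellTiter-Glo luminescence readings, given as surviving fraction against the median of DMSO-only wells. The readings were taken after 10 minutes at room temperature, following five days of continuous exposure to inhibitors at 0.5, 1, 5, 10, 50, 100, 500 and 1000 nM that began 24 hours after log-phase tumour cell lines were seeded at 250–500 cells per well in 384-well plates. Every line was screened three times and kept only if replicate Pearson r >0.7 and median Z' >0.3.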

DOXORUBICIN = compound: COc1cccc2c1C(=O)c1c(O)c3c(c(O)c1C2=O)C[C@@](O)(C(=O)CO)C[C@@H]3O[C@H]1C[C@H](N)[C@H](O)[C@H](C)O1 [DOXORUBICIN]; experiment: as above; conditions: exposure time: 5 days
In short: as §1

Row | Test System | surviving fraction (FLUOROURACIL; 0.5 nM) | surviving fraction (FLUOROURACIL; 1 nM) | surviving fraction (FLUOROURACIL; 5 nM) | surviving fraction (FLUOROURACIL; 10 nM) | surviving fraction (FLUOROURACIL; 50 nM) | surviving fraction (FLUOROURACIL; 100 nM) | surviving fraction (FLUOROURACIL; 500 nM) | surviving fraction (FLUOROURACIL; 1000 nM) | surviving fraction (DOXORUBICIN; 0.5 nM) | surviving fraction (DOXORUBICIN; 1 nM) | surviving fraction (DOXORUBICIN; 5 nM) | surviving fraction (DOXORUBICIN; 10 nM) | surviving fraction (DOXORUBICIN; 50 nM) | surviving fraction (DOXORUBICIN; 100 nM) | surviving fraction (DOXORUBICIN; 500 nM) | surviving fraction (DOXORUBICIN; 1000 nM)
1 | HCC1395 BREAST | 1.01 ± 0.093 | 0.966 ± 0.21 | 1.13 ± 0.1 | 1.16 ± 0.072 | 0.945 ± 0.1 | 0.955 ± 0.12 | 0.887 ± 0.053 | 0.947 ± 0.077 | 0.926 ± 0.18 | 1.11 ± 0.18 | 1.03 ± 0.036 | 1.19 ± 0.11 | 0.928 ± 0.11 | 1.07 ± 0.08 | 0.693 ± 0.085 | 0.808 ± 0.091
2 | HCC1806 BREAST | 1.1 ± 0.028 | 1.02 ± 0.12 | 1.08 ± 0.043 | 0.973 ± 0.081 | 0.992 ± 0.069 | 0.939 ± 0.065 | 0.737 ± 0.12 | 0.601 ± 0.033 | 0.963 ± 0.033 | 1.01 ± 0.076 | 0.75 ± 0.068 | 0.369 ± 0.039 | 0.102 ± 0.013 | 0.0793 ± 0.005 | 0.0243 ± 0.0011 | 0.0257 ± 0.0011
3 | HCC1954 BREAST | 1.13 ± 0.31 | 1.21 ± 0.17 | 1.13 ± 0.07 | 1.26 ± 0.21 | 0.572 ± 0.11 | 0.629 ± 0.063 | 0.681 ± 0.095 | 0.571 ± 0.018 | 1.03 ± 0.19 | 0.955 ± 0.18 | 0.829 ± 0.015 | 0.772 ± 0.058 | 0.465 ± 0.067 | 0.169 ± 0.0085 | 0.0355 ± 0.00071 | 0.0328 ± 0.00035
4 | HCT15 LARGE INTESTINE | 1.05 ± 0.062 | 1.01 ± 0.051 | 1.043 ± 0.01 | 0.995 ± 0.06 | 0.976 ± 0.069 | 0.878 ± 0.048 | 0.262 ± 0.013 | 0.163 ± 0.0084 | 1.01 ± 0.016 | 0.986 ± 0.044 | 1.01 ± 0.045 | 0.987 ± 0.02 | 0.486 ± 0.044 | 0.18 ± 0.018 | 0.0863 ± 0.005 | 0.066 ± 0.0027
5 | HELA CERVIX | 1.07 ± 0.017 | 0.993 ± 0.031 | 0.997 ± 0.019 | 1.03 ± 0.037 | 1.01 ± 0.062 | 1.06 ± 0.027 | 1.3 ± 0.035 | 1.15 ± 0.096 | 0.998 ± 0.055 | 1.03 ± 0.022 | 0.897 ± 0.029 | 0.595 ± 0.031 | 0.316 ± 0.007 | 0.309 ± 0.022 | 0.0252 ± 0.00076 | 0.0252 ± 0.0013
6 | HOS BONE | 1.05 ± 0.025 | 1.01 ± 0.017 | 1.02 ± 0.015 | 0.99 ± 0.015 | 1.03 ± 0.039 | 1.01 ± 0.034 | 0.8203 ± 0.0081 | 0.639 ± 0.032 | 1.009 ± 0.0046 | 1 ± 0.028 | 0.686 ± 0.0056 | 0.352 ± 0.1 | 0.087 ± 0.0053 | 0.043 ± 0.007 | 0.024 | 0.0283 ± 0.0015
7 | HOSMNG BONE | 0.969 ± 0.012 | 1.03 ± 0.037 | 0.933 ± 0.024 | 0.962 ± 0.043 | 1.12 ± 0.13 | 1.19 ± 0.042 | 1.03 ± 0.031 | 1.02 ± 0.037 | 0.976 ± 0.05 | 1.02 ± 0.032 | 0.983 ± 0.083 | 0.98 ± 0.07 | 0.549 ± 0.051 | 0.506 ± 0.025 | 0.165 ± 0.056 | 0.153 ± 0.037
8 | HSSYII SYNOVIAL | 0.933 ± 0.045 | 0.938 ± 0.078 | 0.992 ± 0.075 | 0.949 ± 0.043 | 0.942 ± 0.016 | 0.911 ± 0.059 | 0.906 ± 0.028 | 0.853 ± 0.02 | 0.901 ± 0.025 | 0.759 ± 0.018 | 0.381 ± 0.02 | 0.157 ± 0.015 | 0.0632 ± 0.0042 | 0.0312 ± 0.002 | 0.0185 ± 0.0022 | 0.0217 ± 0.0019
9 | HT1080 SOFT TISSUE | 1.06 ± 0.016 | 1.087 ± 0.0087 | 1.07 ± 0.0075 | 1.07 ± 0.029 | 0.965 ± 0.061 | 0.991 ± 0.021 | 0.637 ± 0.063 | 0.406 ± 0.019 | 0.992 ± 0.01 | 0.95 ± 0.041 | 0.553 ± 0.0044 | 0.333 ± 0.037 | 0.265 ± 0.0078 | 0.222 ± 0.018 | 0.0267 ± 0.00058 | 0.0437 ± 0.0045
10 | HU09 BONE | 1.06 ± 0.13 | 0.966 ± 0.045 | 1.1 ± 0.022 | 1.1 ± 0.038 | 0.985 ± 0.092 | 0.941 ± 0.051 | 0.693 ± 0.091 | 0.604 ± 0.031 | 0.924 ± 0.04 | 0.964 ± 0.11 | 0.861 ± 0.13 | 0.539 ± 0.1 | 0.0467 ± 0.0046 | 0.0277 ± 0.005 | 0.0227 ± 0.0023 | 0.0247 ± 0.0021
11 | HUO3N1 BONE | 1 ± 0.047 | 1.06 ± 0.02 | 1.09 ± 0.031 | 1.07 ± 0.05 | 1.03 ± 0.059 | 0.99 ± 0.046 | 0.973 ± 0.036 | 0.91 ± 0.029 | 0.977 ± 0.053 | 1.02 ± 0.021 | 0.953 ± 0.052 | 0.857 ± 0.049 | 0.47 ± 0.016 | 0.311 ± 0.025 | 0.08133 ± 0.00058 | 0.0547 ± 0.00058
12 | JIMT1 BREAST | 0.932 ± 0.0056 | 0.899 ± 0.021 | 0.979 ± 0.033 | 0.9068 ± 0.0066 | 0.94 ± 0.038 | 0.884 ± 0.062 | 0.948 ± 0.066 | 0.866 ± 0.076 | 0.943 ± 0.0048 | 0.963 ± 0.025 | 0.994 ± 0.04 | 0.901 ± 0.036 | 0.56 ± 0.055 | 0.48 ± 0.017 | 0.225 ± 0.012 | 0.087 ± 0.019
13 | JURKAT HAEMATOPOIETIC AND LYMPHOID TISSUE | 1.14 ± 0.028 | 1.09 ± 0.0023 | 1.09 ± 0.049 | 1.09 ± 0.016 | 1.04 ± 0.069 | 1.03 ± 0.061 | 1.07 ± 0.022 | 0.842 ± 0.057 | 1.05 ± 0.023 | 1.049 ± 0.0078 | 0.61 ± 0.035 | 0.129 ± 0.004 | 0.0323 ± 0.00058 | 0.0293 ± 0.00058 | 0.027 | 0.0297 ± 0.00058
14 | KPD BONE | 0.982 ± 0.018 | 0.922 ± 0.052 | 1.02 ± 0.07 | 1.03 ± 0.044 | 1.05 ± 0.048 | 1.02 ± 0.051 | 0.9797 ± 0.0032 | 0.926 ± 0.022 | 1.06 ± 0.057 | 0.963 ± 0.056 | 0.897 ± 0.075 | 0.909 ± 0.05 | 0.242 ± 0.048 | 0.116 ± 0.011 | 0.0297 ± 0.0031 | 0.0317 ± 0.0015
15 | LM7 BONE | 0.976 ± 0.039 | 0.992 ± 0.027 | 1.05 ± 0.043 | 1.01 ± 0.047 | 0.851 ± 0.057 | 0.856 ± 0.077 | 0.73 ± 0.079 | 0.628 ± 0.083 | 0.95 ± 0.033 | 1.05 ± 0.073 | 0.902 ± 0.051 | 0.818 ± 0.014 | 0.245 ± 0.016 | 0.229 ± 0.018 | 0.0483 ± 0.0038 | 0.0483 ± 0.0065
16 | LNCAP PROSTATE | 1.07 ± 0.039 | 1.17 ± 0.076 | 1.07 ± 0.11 | 1.05 ± 0.043 | 1.17 ± 0.022 | 1.12 ± 0.021 | 0.964 ± 0.18 | 0.73 ± 0.11 | 0.973 ± 0.018 | 0.863 ± 0.076 | 0.483 ± 0.075 | 0.33 ± 0.029 | 0.124 ± 0.013 | 0.0727 ± 0.01 | 0.024 ± 0.0017 | 0.0247 ± 0.0011
17 | MCF7 BREAST | 0.929 ± 0.055 | 0.907 ± 0.043 | 0.93 ± 0.035 | 0.893 ± 0.027 | 0.973 ± 0.11 | 0.986 ± 0.032 | 0.837 ± 0.054 | 0.707 ± 0.033 | 0.857 ± 0.038 | 0.868 ± 0.042 | 0.859 ± 0.053 | 0.7804 ± 0.0075 | 0.589 ± 0.032 | 0.469 ± 0.0095 | 0.0898 ± 0.0037 | 0.0774 ± 0.008
18 | MDAMB134 BREAST | 0.823 ± 0.042 | 0.964 ± 0.16 | 0.832 ± 0.082 | 0.877 ± 0.18 | 0.745 ± 0.094 | 0.744 ± 0.12 | 0.748 ± 0.0042 | 0.714 ± 0.016 | 0.865 ± 0.0028 | 0.835 ± 0.098 | 1.03 ± 0.021 | 0.9 ± 0.098 | 0.734 ± 0.023 | 0.693 ± 0.085 | 0.106 ± 0.019 | 0.0295 ± 0.0035
19 | MDAMB157 BREAST | 0.981 ± 0.019 | 0.969 ± 0.12 | 1.05 ± 0.055 | 1.05 ± 0.1 | 1.02 ± 0.03 | 0.978 ± 0.017 | 0.943 ± 0.044 | 0.836 ± 0.059 | 0.918 ± 0.025 | 0.869 ± 0.053 | 0.498 ± 0.058 | 0.213 ± 0.02 | 0.375 ± 0.042 | 0.214 ± 0.014 | 0.053 ± 0.0027 | 0.0307 ± 0.0046
20 | MDAMB231 BREAST | 0.978 ± 0.019 | 0.947 ± 0.014 | 0.975 ± 0.039 | 0.972 ± 0.022 | 0.961 ± 0.035 | 0.914 ± 0.041 | 0.986 ± 0.021 | 0.865 ± 0.022 | 0.979 ± 0.029 | 0.992 ± 0.037 | 0.946 ± 0.024 | 0.817 ± 0.026 | 0.53 ± 0.014 | 0.474 ± 0.011 | 0.125 ± 0.0043 | 0.0638 ± 0.0041
21 | MDAMB361 BREAST | 0.725 ± 0.094 | 0.747 ± 0.067 | 0.8 ± 0.092 | 0.758 ± 0.12 | 0.537 ± 0.042 | 0.618 ± 0.027 | 0.704 ± 0.08 | 0.65 ± 0.061 | 0.794 ± 0.089 | 0.997 ± 0.12 | 0.906 ± 0.013 | 0.856 ± 0.074 | 0.746 ± 0.038 | 0.831 ± 0.1 | 0.387 ± 0.034 | 0.0543 ± 0.013

— the supplement of paper PMC6045584
